Source: patent US7041705B2, “Injectable aqueous dispersions of propofol” (Jagotec AG, priority 1998, dated 2006)
Where a name gives a salt, the structure may show the parent alone. Read-outs that look alike come from different tables or passages of the source.

Test system: human whole-blood (erythrocytes)
Settings: both
Procedure: In-vitro evaluation of the hemolytic influence of the preparations of this invention on human whole-blood was determined as a further guide to selecting formulations with a low tendancy to produce irritation around the site of injection. The hemolytic potential of the formulation on blood was evaluated by the assay of erythrocyte cytoplasmic marker enzyme, lactate dehydrogenase (LDH). Measurement of erythrocyte cytoplasmic marker enzyme. LDH, which escapes from the leaky or ruptured erythrocytes into tie plasma compartment of the blood, is one of the commonly used quantitative assays described in literature for evaluation of hemolytic potential of injectable formulations (Stenz and Bauer, 1996). The blood was obtained from male or female Caucasian human volunteers of 18 to 65 years age and stabilized with sodium heparin. The test formulation was mixed with an equal volume of human whole blood and incubated at 37° C. for about 1 hour. The mixture was then held at ambient temperature for 30 min. followed by centrifugation at 1500 rpm for 10 min. The level of LDH in the supernatant was determined by a standard procedure known to the scientists skilled in this art.

`CCCCc1oc2ccccc2c1C(=O)c1cc(I)c(OCCN(CC)CC)c(I)c1` [Amiodarone hydrochloride] was tested, and the LDH (1.8 mg/mL) was 673 IU/L and the LDH (50 mg/mL) was 8190 IU/L.
